Measured values reported in US11833207B2, “Adipocyte-targeting DNA nanodrug and preparation and uses thereof” (HUNAN UNIVERSITY, priority 2020, dated 2023).

What was measured:
[1] = EPR measurement of O2·− scavenging (DEPMPO trapper)
Method: Electron paramagnetic resonance (EPR) measurements were performed to evaluate the O2·^−- and ·OH-scavenging abilities of DNA hybrid nanostructures TADN. DEPMPO was used as the trapper. O2·^− was generated by dissolving KO2 in DMSO/crown ether (0.2 M). ·OH was produced by the Fenton-type reaction using H2O2 and CuSO4.

3T3-L1 preadipocytes = assay type: cell-based; details: mouse, 24 h
Method: 3T3-L1 preadipocytes were seeded in a 96-well plate at 10^4/well. After culturing for 24 h, the preadipocytes were added with TA, TDM or TADN for another 24 h culture. The culture medium was removed, and the cells were washed twice with PBS, followed by the addition of 100 μL of fresh culture medium and 10 μL of CCK-8 for the CCK-8 assay according to the manufacturer's protocol. The UV absorbance of each well at 450 nm was recorded using a Synergy 2 multifunctional microplate reader (Bio-Tek, Winooski, Vt.).

BSA = BSA (Bos taurus, UniProt P02769); assay: Nonspecific protein (BSA) absorption by BSA fluorescence
Chain of BSA (P02769 25-607): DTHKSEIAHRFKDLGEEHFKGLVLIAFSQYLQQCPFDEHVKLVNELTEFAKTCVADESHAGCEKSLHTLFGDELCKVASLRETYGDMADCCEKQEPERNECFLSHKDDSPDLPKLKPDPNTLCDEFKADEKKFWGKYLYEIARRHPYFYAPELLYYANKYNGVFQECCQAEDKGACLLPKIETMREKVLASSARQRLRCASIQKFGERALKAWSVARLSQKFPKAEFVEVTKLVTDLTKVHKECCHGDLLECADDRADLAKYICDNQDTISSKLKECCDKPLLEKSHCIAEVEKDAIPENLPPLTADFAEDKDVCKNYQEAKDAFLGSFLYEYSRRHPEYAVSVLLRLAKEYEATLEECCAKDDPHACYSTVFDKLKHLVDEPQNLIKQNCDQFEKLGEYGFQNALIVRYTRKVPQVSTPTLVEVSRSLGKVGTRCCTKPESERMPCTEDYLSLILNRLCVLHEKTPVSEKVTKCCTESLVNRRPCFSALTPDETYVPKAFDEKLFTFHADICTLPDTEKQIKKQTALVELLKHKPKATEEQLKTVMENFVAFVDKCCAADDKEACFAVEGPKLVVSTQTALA

SMILES: O=C(OC[C@H]1O[C@@H](OC(=O)c2cc(O)c(O)c(OC(=O)c3cc(O)c(O)c(O)c3)c2)[C@H](OC(=O)c2cc(O)c(O)c(OC(=O)c3cc(O)c(O)c(O)c3)c2)[C@@H](OC(=O)c2cc(O)c(O)c(OC(=O)c3cc(O)c(O)c(O)c3)c2)[C@@H]1OC(=O)c1cc(O)c(O)c(OC(=O)c2cc(O)c(O)c(O)c2)c1)c1cc(O)c(O)c(OC(=O)c2cc(O)c(O)c(O)c2)c1 [TA, tannic acid]
- O2·−-scavenging activity ([1]; EPR): comparable scavenging activity to TADN
- O2·−-scavenging stability ([1]; after 24 h): almost disappeared
- concentration above which cytotoxicity increases (3T3-L1 preadipocytes): above 25 μM
- protein adsorption (BSA): tended to absorb proteins
